From patent US20240182531A1, “KV1.3 Blockers” (priority 2021, published 2024)
Where a SMILES comes first, the peptide text is derived from it. Bridges are numbered along the chain shown (N, C = ends). [ ]: non-standard residue; d: D form. Phe(4-NH2) = Nc1ccc(C[C@H](N)C(=O)O)cc1; Nle = CCCC[C@H](N)C(=O)O

Key:
human Kv1.1 = molecular target: T1, human Kv1.1 (Homo sapiens, UniProt Q09470); test: cell-based; conditions: ratio of patch clamp IC50 values
T1 construct: expressed in transfected cells; host or cells: CHO

human Kv1.2 = molecular target: T2, human Kv1.2 (Homo sapiens, UniProt P16389); test: cell-based; conditions: ratio of patch clamp IC50 values
T2 construct: expressed in transfected cells; host or cells: CHO

human Kv1.6 = molecular target: T3, human Kv1.6 (Homo sapiens, UniProt P17658); test: cell-based; conditions: ratio of patch clamp IC50 values
T3 construct: expressed in transfected cells; host or cells: CHO

Rat whole blood = Rat whole blood (Rattus norvegicus, UniProt P15384); type: cell-based; conditions: IL-17A release, thapsigargin, 24 Hr, at least 2 replicates
Chain of Rat whole blood (P15384 whole entry): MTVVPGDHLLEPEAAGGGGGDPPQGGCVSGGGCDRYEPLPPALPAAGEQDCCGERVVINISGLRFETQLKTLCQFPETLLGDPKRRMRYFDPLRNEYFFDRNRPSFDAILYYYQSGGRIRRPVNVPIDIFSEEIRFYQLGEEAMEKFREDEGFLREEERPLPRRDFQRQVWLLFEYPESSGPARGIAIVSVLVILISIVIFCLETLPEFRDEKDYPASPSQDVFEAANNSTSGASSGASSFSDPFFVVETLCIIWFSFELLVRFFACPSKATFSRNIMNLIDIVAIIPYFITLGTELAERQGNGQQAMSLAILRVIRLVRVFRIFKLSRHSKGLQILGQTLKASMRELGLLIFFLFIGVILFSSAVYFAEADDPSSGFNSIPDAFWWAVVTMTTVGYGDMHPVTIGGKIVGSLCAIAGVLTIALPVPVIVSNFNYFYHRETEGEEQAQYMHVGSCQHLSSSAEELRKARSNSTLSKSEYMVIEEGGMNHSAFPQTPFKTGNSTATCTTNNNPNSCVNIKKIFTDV

T3 sequence (P17658 whole entry): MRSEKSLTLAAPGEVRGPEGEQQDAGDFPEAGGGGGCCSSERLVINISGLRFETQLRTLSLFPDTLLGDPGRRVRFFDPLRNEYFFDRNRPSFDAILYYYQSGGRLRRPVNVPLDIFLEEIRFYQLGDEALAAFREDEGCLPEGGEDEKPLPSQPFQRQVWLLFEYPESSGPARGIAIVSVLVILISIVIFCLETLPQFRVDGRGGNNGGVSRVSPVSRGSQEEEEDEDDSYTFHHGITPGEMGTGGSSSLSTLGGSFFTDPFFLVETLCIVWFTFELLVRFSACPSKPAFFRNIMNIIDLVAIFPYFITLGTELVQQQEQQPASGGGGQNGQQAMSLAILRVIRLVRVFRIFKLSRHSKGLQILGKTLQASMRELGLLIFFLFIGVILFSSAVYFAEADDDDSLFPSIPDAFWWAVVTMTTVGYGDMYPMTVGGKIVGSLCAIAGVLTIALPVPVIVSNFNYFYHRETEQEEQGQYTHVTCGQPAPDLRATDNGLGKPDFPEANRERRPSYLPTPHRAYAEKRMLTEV
T1 sequence (Q09470 whole entry): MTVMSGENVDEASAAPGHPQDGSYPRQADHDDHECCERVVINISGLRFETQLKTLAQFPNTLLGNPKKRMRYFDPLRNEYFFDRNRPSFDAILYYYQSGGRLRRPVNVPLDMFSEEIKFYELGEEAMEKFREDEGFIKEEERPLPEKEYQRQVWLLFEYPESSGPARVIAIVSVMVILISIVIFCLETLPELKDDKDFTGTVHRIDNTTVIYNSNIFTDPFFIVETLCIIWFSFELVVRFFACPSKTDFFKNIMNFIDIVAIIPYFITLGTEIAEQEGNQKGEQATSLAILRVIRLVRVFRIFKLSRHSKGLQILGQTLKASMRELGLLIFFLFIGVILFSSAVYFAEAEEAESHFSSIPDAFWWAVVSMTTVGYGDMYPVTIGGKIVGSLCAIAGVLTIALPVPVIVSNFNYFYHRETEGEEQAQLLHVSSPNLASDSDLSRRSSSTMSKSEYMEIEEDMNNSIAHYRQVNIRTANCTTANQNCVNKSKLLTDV
T2 sequence (P16389 whole entry): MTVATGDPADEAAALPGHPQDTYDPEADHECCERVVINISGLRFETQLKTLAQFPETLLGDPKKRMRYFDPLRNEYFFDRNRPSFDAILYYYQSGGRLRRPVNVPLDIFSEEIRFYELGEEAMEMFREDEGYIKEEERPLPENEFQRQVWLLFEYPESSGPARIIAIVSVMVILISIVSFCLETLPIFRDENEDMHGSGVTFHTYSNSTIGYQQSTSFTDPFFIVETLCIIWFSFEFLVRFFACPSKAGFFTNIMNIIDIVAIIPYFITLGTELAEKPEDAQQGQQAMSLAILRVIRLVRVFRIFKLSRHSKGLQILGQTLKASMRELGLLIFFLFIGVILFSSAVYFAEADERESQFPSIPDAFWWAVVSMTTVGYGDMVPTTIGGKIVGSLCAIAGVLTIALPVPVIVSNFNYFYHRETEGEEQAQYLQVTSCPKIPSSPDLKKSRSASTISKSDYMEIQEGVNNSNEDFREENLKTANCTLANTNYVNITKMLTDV

SMILES | Selectivity ratio Kv1.1/Kv1.3 (human Kv1.1) | Selectivity ratio Kv1.2/Kv1.3 (human Kv1.2) | Selectivity ratio Kv1.6/Kv1.3 (human Kv1.6) | IC50 (Rat whole blood)
CCCC[C@@H]1NC(=O)[C@@H]2CSSC[C@H](NC(=O)[C@H](CCCNC(=N)N)NC(=O)[C@H](CCCC)NC(=O)[C@H](CC(=O)O)NC(=O)[C@H](CCCC)NC(=O)[C@@H](N)CC(N)=O)C(=O)N[C@@H](CO)C(=O)N[C@@H](C)C(=O)N[C@@H](CO)C(=O)N[C@@H](C(C)C)C(=O)N[C@@H](CCC(=O)O)C(=O)N[C@H]3CSSC[C@H](NC(=O)[C@H](CCCCN)NC(=O)[C@H](CCCCN)NC(=O)[C@H](CC(N)=O)NC1=O)C(=O)N[C@@H](CCCCN)C(=O)N[C@H](C(=O)N[C@@H](Cc1ccc(O)cc1)C(=O)N1CCC[C@H]1C(=O)N[C@@H](CCCNC(=N)N)C(N)=O)CSSC[C@H](NC(=O)[C@H](CCCCN)NC(=O)[C@H](CCC(N)=O)NC(=O)[C@H](CCCCN)NC3=O)C(=O)N[C@@H](CCCCN)C(=O)N[C@@H](C)C(=O)N[C@@H]([C@@H](C)CC)C(=O)NCC(=O)N[C@@H](CO)C(=O)N[C@@H]([C@@H](C)CC)C(=O)N[C@@H](Cc1ccccc1)C(=O)NCC(=O)N[C@@H](CCCCN)C(=O)N2 [compound 53] (H-N[Nle]D[Nle]RCSASVECKQKCKAIGSIFGKC[Nle]NKKCKCYPR-NH2; disulfide 6-26, 12-31, 16-33) | >2200 | 123 | 707 | 1 nM
CCCC[C@@H]1NC(=O)[C@@H]2CSSC[C@H](NC(=O)[C@H](CCCNC(=N)N)NC(=O)[C@H](CCCC)NC(=O)[C@H](CC(=O)O)NC(=O)[C@H](CCCC)NC(=O)[C@@H](N)CC(N)=O)C(=O)N[C@@H](CO)C(=O)N[C@@H](C)C(=O)N[C@@H](CO)C(=O)N[C@@H](C(C)C)C(=O)N[C@@H](CCC(=O)O)C(=O)N[C@H]3CSSC[C@H](NC(=O)[C@H](CCCCN)NC(=O)[C@H](CCCCN)NC(=O)[C@H](CC(N)=O)NC1=O)C(=O)N[C@@H](CCCCN)C(=O)N[C@H](C(=O)N[C@@H](Cc1ccc(O)cc1)C(=O)N1CCC[C@H]1C(=O)N[C@@H](CCCNC(=N)N)C(N)=O)CSSC[C@H](NC(=O)[C@H](CCCCN)NC(=O)[C@H](CCC(N)=O)NC(=O)[C@H](CCCCN)NC3=O)C(=O)N[C@@H](CC(C)C)C(=O)N[C@@H](CCCCN)C(=O)N[C@@H](C)C(=O)N[C@@H]([C@@H](C)CC)C(=O)NCC(=O)N[C@@H](CO)C(=O)N1CCC[C@H]1C(=O)N[C@@H](Cc1ccccc1)C(=O)NCC(=O)N[C@@H](CCCCN)C(=O)N2 [compound 62] (H-N[Nle]D[Nle]RCSASVECKQKCLKAIGSPFGKC[Nle]NKKCKCYPR-NH2; disulfide 6-27, 12-32, 16-34) | >11600 | 1740 | 9102 | 0.44 nM
CCCC[C@@H]1NC(=O)[C@@H]2CSSC[C@H](NC(=O)[C@H](CCCNC(=N)N)NC(=O)[C@H](CCCC)NC(=O)[C@H](CC(=O)O)NC(=O)[C@H](CCCC)NC(=O)[C@@H](N)CC(N)=O)C(=O)N[C@@H](CO)C(=O)N[C@@H](C)C(=O)N[C@@H](CO)C(=O)N[C@@H](CCCCN)C(=O)N[C@@H](CCC(=O)O)C(=O)N[C@H]3CSSC[C@H](NC(=O)[C@H](CCCCN)NC(=O)[C@H](CCCCN)NC(=O)[C@H](CC(N)=O)NC1=O)C(=O)N[C@@H](CCCCN)C(=O)N[C@H](C(=O)N[C@@H](Cc1ccc(O)cc1)C(=O)N1CCC[C@H]1C(=O)N[C@@H](CCCNC(=N)N)C(N)=O)CSSC[C@H](NC(=O)[C@H](CCCCN)NC(=O)[C@H](CCC(N)=O)NC(=O)[C@H](CCCCN)NC3=O)C(=O)N[C@@H](CC(C)C)C(=O)N[C@@H](CCCCN)C(=O)N[C@@H](C)C(=O)N[C@@H]([C@@H](C)CC)C(=O)NCC(=O)N[C@@H](CO)C(=O)N[C@@H]([C@@H](C)CC)C(=O)N[C@@H](Cc1ccccc1)C(=O)NCC(=O)N[C@@H](CCCCN)C(=O)N2 [compound 63] (H-N[Nle]D[Nle]RCSASKECKQKCLKAIGSIFGKC[Nle]NKKCKCYPR-NH2; disulfide 6-27, 12-32, 16-34) | >9600 | 587 | 3929 | 0.68 nM
CCCC[C@H](NC(=O)[C@H](CC(=O)O)NC(=O)[C@H](CCCC)NC(=O)[C@@H](N)CO)C(=O)N[C@@H](CCCNC(=N)N)C(=O)N[C@H]1CSSC[C@@H]2NC(=O)[C@H](CCCCN)NC(=O)CNC(=O)[C@H](Cc3ccccc3)NC(=O)[C@H]([C@@H](C)CC)NC(=O)[C@H](CO)NC(=O)CNC(=O)[C@H]([C@@H](C)CC)NC(=O)[C@H](C)NC(=O)[C@H](CCCCN)NC(=O)[C@H](CC(C)C)NC(=O)[C@@H]3CSSC[C@@H](C(=O)N[C@@H](Cc4ccc(N)cc4)C(=O)N4CCC[C@H]4C(=O)N[C@@H](CCCNC(=N)N)C(N)=O)NC(=O)[C@H](CCCCN)NC(=O)[C@H](CSSC[C@H](NC(=O)[C@H](CCC(=O)O)NC(=O)[C@H](C(C)C)NC(=O)[C@H](CO)NC(=O)[C@H](C)NC(=O)[C@H](CO)NC1=O)C(=O)N[C@@H](CCCCN)C(=O)N[C@@H](CCC(N)=O)C(=O)N[C@@H](CCCCN)C(=O)N3)NC(=O)[C@H](CCCCN)NC(=O)[C@H](CCCCN)NC(=O)[C@H](CC(N)=O)NC(=O)[C@H](CCSC)NC2=O [compound 70] (H-S[Nle]D[Nle]RCSASVECKQKCLKAIGSIFGKCMNKKCKC[Phe(4-NH2)]PR-NH2; disulfide 6-27, 12-32, 16-34) | >12200 | 1720 | >12200 | 0.79 nM
CCCC[C@H](NC(=O)[C@H](CC(=O)O)NC(=O)[C@H](CCCC)NC(=O)[C@@H](N)CO)C(=O)N[C@@H](CCCNC(=N)N)C(=O)N[C@H]1CSSC[C@@H]2NC(=O)[C@H](CCCCN)NC(=O)CNC(=O)[C@H](Cc3ccccc3)NC(=O)[C@H]([C@@H](C)CC)NC(=O)[C@H](CO)NC(=O)CNC(=O)[C@H]([C@@H](C)CC)NC(=O)[C@H](C)NC(=O)[C@H](CCCCN)NC(=O)[C@H](CC(C)C)NC(=O)[C@@H]3CSSC[C@@H](C(=O)N[C@@H](Cc4ccc(O)cc4)C(=O)N4CCC[C@H]4C(=O)N[C@@H](CCCNC(=N)N)C(N)=O)NC(=O)[C@H](CCCCN)NC(=O)[C@H](CSSC[C@H](NC(=O)[C@H](CCC(=O)O)NC(=O)[C@H](C(C)C)NC(=O)[C@H](CO)NC(=O)[C@H](C)NC(=O)[C@H](CO)NC1=O)C(=O)NCC(=O)N[C@@H](CCC(N)=O)C(=O)N[C@@H](CCCCN)C(=O)N3)NC(=O)[C@H](CCCCN)NC(=O)[C@H](CCCCN)NC(=O)[C@H](CC(N)=O)NC(=O)[C@H](CCSC)NC2=O [compound 71] (H-S[Nle]D[Nle]RCSASVECGQKCLKAIGSIFGKCMNKKCKCYPR-NH2; disulfide 6-27, 12-32, 16-34) | >27700 | 3438 | >27700 | 0.3 nM
CCCC[C@H](NC(=O)[C@@H](N)CO)C(=O)N[C@@H](CC(=O)O)C(=O)N[C@@H](CCC(=O)O)C(=O)N[C@@H](CCCNC(=N)N)C(=O)N[C@H]1CSSC[C@@H]2NC(=O)[C@H](CCCCN)NC(=O)CNC(=O)[C@H](Cc3ccccc3)NC(=O)[C@H]([C@@H](C)CC)NC(=O)[C@H](CO)NC(=O)CNC(=O)[C@H]([C@@H](C)CC)NC(=O)[C@H](C)NC(=O)[C@H](CCCCN)NC(=O)[C@H](CC(C)C)NC(=O)[C@@H]3CSSC[C@@H](C(=O)N[C@@H](Cc4ccc(O)cc4)C(=O)N4CCC[C@H]4C(=O)N[C@@H](CCCNC(=N)N)C(N)=O)NC(=O)[C@H](CCCCN)NC(=O)[C@H](CSSC[C@H](NC(=O)[C@H](CCC(=O)O)NC(=O)[C@H](C(C)C)NC(=O)[C@H](CO)NC(=O)[C@H](C)NC(=O)[C@H](CO)NC1=O)C(=O)N[C@@H](CCCCN)C(=O)N[C@@H](CCC(N)=O)C(=O)N[C@@H](CCCCN)C(=O)N3)NC(=O)[C@H](CCCCN)NC(=O)[C@H](CCCCN)NC(=O)[C@H](CC(N)=O)NC(=O)[C@H](CCSC)NC2=O [compound 76] (H-S[Nle]DERCSASVECKQKCLKAIGSIFGKCMNKKCKCYPR-NH2; disulfide 6-27, 12-32, 16-34) | >10600 | 430 | >10600 | 0.55 nM
CCCC[C@@H]1NC(=O)[C@@H]2CSSC[C@H](NC(=O)[C@H](CCCNC(=N)N)NC(=O)[C@H](CCCC)NC(=O)[C@H](CC(=O)O)NC(=O)[C@@H](N)CCCC)C(=O)N[C@@H](CO)C(=O)N[C@@H](C)C(=O)N[C@@H](CO)C(=O)N[C@@H](C(C)C)C(=O)N[C@@H](CCC(=O)O)C(=O)N[C@H]3CSSC[C@H](NC(=O)[C@H](CCCCN)NC(=O)[C@H](CCCCN)NC(=O)[C@H](CC(N)=O)NC1=O)C(=O)N[C@@H](CCCCN)C(=O)N[C@H](C(=O)N[C@@H](Cc1ccc(O)cc1)C(=O)N1CCC[C@H]1C(=O)N[C@@H](CCCNC(=N)N)C(=O)O)CSSC[C@H](NC(=O)[C@H](CCCCN)NC(=O)[C@H](CCC(N)=O)NC(=O)[C@H](CCCCN)NC3=O)C(=O)N[C@@H](CC(C)C)C(=O)N[C@@H](CCCCN)C(=O)N[C@@H](C)C(=O)N[C@@H]([C@@H](C)CC)C(=O)NCC(=O)N[C@@H](CO)C(=O)N[C@@H]([C@@H](C)CC)C(=O)N[C@@H](Cc1ccccc1)C(=O)NCC(=O)N[C@@H](CCCCN)C(=O)N2 [compound 90] (H-[Nle]D[Nle]RCSASVECKQKCLKAIGSIFGKC[Nle]NKKCKCYPR-OH; disulfide 5-26, 11-31, 15-33) | >17800 | 11034 | >17800 | 0.55 nM
